Values quoted from earlier work, collected in patent US20040063658A1, “Nucleoside derivatives for treating hepatitis C virus infection” (priority 2002, published 2004).

How the values were obtained:
[1] = patients treated at currently recommended doses
[2] = test system: HCV; details: treatment of HCV with interferon, long term efficacy

| Compound | patients with significant hemolysis [1] | response rate [2] |
| --- | --- | --- |
| NC(=O)c1ncn([C@@H]2O[C@H](CO)[C@@H](O)[C@H]2O)n1 [Ribavirin, 1-β-D-ribofuranosyl-1H-1,2,-4-triazole-3-carboxamide] | 10-20% | – |
| interferon | – | about 25% |
